This note sets out measurements from patent publication US4363816A, “Tricyclic pyrroles, their compositions and their use” (BYK Gulden Lomberg Chemische Fabrik Gesellschaft mit …, priority 1981, dated 1982).

Read-outs that look alike come from different tables or passages of the source.

For data set [1], the system named is gastric ulcers provoked by a pylorus ligature and acetylsalicylic acid. The data set can be described thus: Antiulcerogenic action (protective action on the stomach), Shay rat: pylorus ligature plus oral acetylsalicylic acid. The format is in vivo, rats (female). To be noted: for ED50: Rattus norvegicus, po, read-out: Protective action on the stomach, ED50. The method, then: (§1) The effect of the compounds according to the invention on the formation, in rats, of gastric ulcers provoked by a pylorus ligature and 10 mg/kg of acetylsalicylic acid and on the inhibition of gastric secretion in rats is shown in the following table:
(§2) compared with the control group
(§3) TQ = therapeutic quotient LD50 /ED50
(§4) The antiulcerogenic action was tested in accordance with the method using the so-called Shay rat: Rats (female, 180 to 200 g, 4 animals per cage on a high grid) which had been fasted for 24 hours were subjected to ulcer provocation by pylorus ligature (under diethyl ether anaesthesia) and oral administration of 100 mg/10 ml/kg of acetylsalicyclic acid. The substances to be tested are administered orally (10 ml/kg) 1 hour before the pylorus ligature. The wound is closed by means of Michel clamps. 4 hours thereafter, the animals are killed under ether anaesthesia by atlas dislocation, and the stomach is removed. The stomach is opened longitudinally and fixed to a cork tile after the amount of gastric juice secreted (volume) has been determined, the number and size (=diameter) of ulcers present are determined with a stereomicroscope with 10-fold magnification. The product of the degree of severity (according to the following rating scale) and the number of ulcers serves as the individual ulcer index.
(§5) ulcer diameter 0.1-1.4 mm 1
(§6) The reduction in the average ulcer index of each treated group compared with that of the control group (=100%) serves as a measure of the antiulcerogenic effect. The ED50 designates the dose which reduces the average ulcer index by 50%.

In the next data set the test system is gastric secretion. In words: Inhibition of gastric secretion in rats. To be noted: 4 hours after administration of the antiulcerogenic ED50. The data set is classed as in vivo. How it is done: as §1
^(+) % inhibition of the gastric secretion (in %) 4 hours after
administration of the antiulcerogenic ED50
as §4

A short description of data set [2]: Antiulcerogenic action (protective action on the stomach), Shay rat: pylorus ligature plus oral acetylsalicylic acid. The data set is classed as in vivo, rats (female). The note with it: rat, in vivo; LD50 i.v. mice / ED50 p.o. rats; read-out: TQ LD50/ED50 (therapeutic quotient). How it is done:
as §1, §2, §3, §4, §5, §6

Data set [3] in a line: Determination of toxicity (LD50, intravenous, mice). To be noted: mouse, in vivo; intravenous administration to mice; observation 7 days; dose at which 50% of the animals die. The method, then:
LD50 = dose at which 50% of the animals die
The toxicity investigations are carried out on female NMRI mice (body weight: 23 to 30 g). The animals (5 animals per dose) receive feed and water ad libitum. Various doses of the substances are administered intravenously (injection time: 1 minute). The observation period is 7 days. The LD50 (the dose at which 50% of the animals die) is determined by means of linear regression.

One may read the ED50 as the dose that gives a 50% effect, or the effect in half of the subjects. Consider `CC1(C)[C@@H](OC(=O)CCC(=O)O)CC[C@]2(C)[C@H]3C(=O)C=C4[C@@H]5C[C@@](C)(C(=O)O)CC[C@]5(C)CC[C@@]4(C)[C@]3(C)CC[C@@H]12` [Serial No. 1, Carbenoxolone, reference compound], for which the 50% effective dose (ED50) in data set [1] is 70 mg/kg. In addition, the “antiulcerogenic action, dose/action curve (in words)” value in data set [1] (Shay rat, up to 300 mg/kg for compound 1) was “the dose/action curve is then very severely flattened so that no substantial increase in the antiulcerogenic action can be achieved even at 300 mg/kg”. Besides, the “Gastric Secretion, % inhibition in rats” value in the data set on gastric secretion is given as 7%.

The term LD50 denotes the dose at which mortality reaches 50%. Higher therefore signals lower toxicity. Take `CCN(CC)CC(=O)N1c2ccccc2NC(=O)c2c1c(C)cn2C` [Serial No. 5, 4-Diethylaminoacetyl-1,3-dimethyl-1,4,9,10-tetrahydropyrrolo[3,2-b][1,5]benzodiazepin-10-one]: the therapeutic quotient (LD50/ED50) in data set [2] amounted to 17.5. Moreover, the median effective dose (ED50) in data set [1] is 6 mg/kg. Besides, in the data set with gastric secretion, the “Gastric Secretion, % inhibition in rats” value is given as 20%. Moreover, in data set [3], the median lethal dose (LD50) at 168 h was found to be 105 mg/kg.

With `Cc1cn(C)c2c1N(C(=O)CN(C)C)c1ccccc1NC2=O` [Serial No. 6, 1,3-Dimethyl-4-dimethylaminoacetyl-1,4,9,10-tetrahydropyrrolo[3,2-b][1,5]benzodiazepin-10-one], in data set [1] (peroral administration to rats 1 hour before pylorus ligature, dose which reduces the ulcer index by 50% compared with the control group), the ED50 was 6.5 mg/kg. Also, in the data set with gastric secretion, the “Gastric Secretion, % inhibition in rats” value is 10%.

`CCCN(CCC)CC(=O)N1c2ccccc2NC(=O)c2c1c(C)cn2C` [Serial No. 7, 1,3-Dimethyl-4-di-(n-propyl)aminoacetyl-1,4,9,10-tetrahydropyrrolo[3,2-b][1,5]benzodiazepin-10-one]: the therapeutic quotient (LD50/ED50) in data set [2] was 16.9. For the same compound, the median effective dose (ED50) in data set [1] is 6.5 mg/kg. Also, the “Gastric Secretion, % inhibition in rats” value in the data set on gastric secretion was 10%. In data set [3], this compound gave an LD50 at 168 h of 110 mg/kg.

With `Cc1cn(C)c2c1N(C(=O)CN1CCN(C)CC1)c1ccccc1NC2=O` [compound 2], the therapeutic quotient (LD50/ED50) in data set [2] came out at 71.4. Moreover, the median effective dose (ED50) in data set [1] is 1.4 mg/kg. Further, in the data set on gastric secretion, the “Gastric Secretion, % inhibition in rats” value is on record as 25%. Also, in data set [3], the LD50 at 168 h was 100 mg/kg.

As to `Cc1cn(C)c2c1N(C(=O)CN1CCCCC1)c1ccccc1NC2=O` [compound 3], the therapeutic quotient (LD50/ED50) in data set [2] came to 21.1. The ED50 in data set [1] was determined as 4.5 mg/kg. Besides, the “Gastric Secretion, % inhibition in rats” value in the data set with gastric secretion is on record as 3%. The LD50 at 168 h in data set [3] worked out at 95 mg/kg.

Turning to `Cc1cn(C)c2c1N(C(=O)CN1CCCC1)c1ccccc1NC2=O` [compound 4], the therapeutic quotient (LD50/ED50) in data set [2] stood at 45.5. In addition, the 50% effective dose (ED50) in data set [1] is 2.2 mg/kg. The “Gastric Secretion, % inhibition in rats” value with gastric secretion is given as 0%. In addition, in data set [3], the LD50 at 168 h turned out to be 100 mg/kg.

For the compound `CCNCC(=O)N1c2ccccc2NC(=O)c2c1c(C)cn2C` [compound 8], the therapeutic quotient (LD50/ED50) in data set [2] is 25.5. In addition, the ED50 in data set [1] was 5.5 mg/kg. For the same compound, in the data set with gastric secretion, the “Gastric Secretion, % inhibition in rats” value stood at 20%. Moreover, the LD50 at 168 h in data set [3] turned out to be 140 mg/kg.

Turning to `Cc1cn(C)c2c1N(C(=O)CCN1CCCC1)c1ccccc1NC2=O` [compound 9], in data set [2], the therapeutic quotient (LD50/ED50) was 11.7. Further, the ED50 in data set [1] was 6 mg/kg. For the same compound, the “Gastric Secretion, % inhibition in rats” value in the data set with gastric secretion was determined as 25%. Further, the 50% lethal dose (LD50) at 168 h in data set [3] came out at 70 mg/kg.

On to `Cc1cn(C)c2c1N(C(=O)CCN(C)C)c1ccccc1NC2=O` [compound 10], for which the therapeutic quotient (LD50/ED50) in data set [2] was 26.7. The ED50 in data set [1] turned out to be 4.5 mg/kg. In the data set on gastric secretion, the “Gastric Secretion, % inhibition in rats” value was found to be 21%. Also, in data set [3], the LD50 at 168 h was determined as 120 mg/kg.
